The source of these data is patent US5013554A, “Oral pharmaceutical compositions containing dextrophan salts” (Prodotti Formenti s.r.l., priority 1988, dated 1991).

Series [1] can be described thus: pharmacokinetic study on guinea pigs under urethane anaesthesia, oral administration of dextrorphan citrate and tartrate; plasma dextrorphan by HPLC after β-glucuronidase hydrolysis. Format: in vivo. The protocol: The results from a pharmacokinetic study effected on guinea pigs under urethane anesthaesia, to which dextrorphan citrate and tartrate had been administered by the oral route, are reported hereinbelow in order to show the good bioavailability of dextrorphan salts.
Dextrorphan dosages were measured by a high pressure liquid chromatography method.
The plasma samples were subjected, before the extraction, to enzymatic hydrolysis with β-glucuronidase, according to the method reported by T.EAST and D.DYE (Journal of Chromatography Biomedical Applications 388, 99-112, 1985).
After hydrolysis, plasma samples were alkalinized with sodium carbonate and extracted with benzene; benzene was re-extracted with 0.5 ml of 0.1 NHCl and 100 mcl were chromatographed under the following conditions:
COLUMN: Lichrosorb RP Select B Merck 5 λ, 25 cm ×4 mm inn. d.
MOBILE PHASE: Octanesulphonic acid sodium salt 0.01M solution in water. Acetonitrile mixture (68-32% ). The solution was then buffered to pH 3 with phosphoric acid.
DETECTOR: F 1000 MERCK HITACHI Fluorimeter exc.=280 nm; em.=310 nm

For series [2] the following is noted: previously reported; cited from earlier work.
The conditions of series [3]: background; cited from earlier work.
The conditions of series [4]: background; cited from earlier work. The source holds these as a separate data set.
For series [5] the following is noted: background; compared with dextromethorphan; cited from earlier work.
The subject of the next series is opiaceous receptors. Conditions: background; cited from earlier work.

SMILES strings stand for the structures. Where a name gives a salt, the structure may show the parent alone.

With `CN1CC[C@@]23CCCC[C@@H]2[C@@H]1Cc1ccc(O)cc13` [Dextrorphan citrate], the oral absorption entry in series [1] (in words) is recorded as “effectively absorbed”.

Regarding `CN1CC[C@@]23CCCC[C@@H]2[C@@H]1Cc1ccc(O)cc13` [Dextrorphan], the “use by the oral route” value in series [2] is “not to be conveniently used by the oral route”. For the same compound, the analgesic activity result in series [3] is reported as “lack of analgesic activity”. The antitussive action result in series [4] is listed as “remarkable antitussive action”. The toxicity entry in series [5] is “very low toxicity, even lower than that of dextromethorphan”. Moreover, the “affinity to the opiaceous receptors” value in the series on opiaceous receptors is “lack of analgesic activity and of affinity to the opiaceous receptors”. Moreover, in series [1] (guinea pig, plasma, po, Table 2 (dextrorphan tartrate by order of b16), 15 minutes, read-out: Dextrorphan hematic levels), the concentration at 0.25 h was found to be 10 ng/mL. Moreover, the concentration at 0.5 h in series [1] (guinea pig, plasma, po, Table 2 (dextrorphan tartrate by order of b16), 30 minutes, read-out: Dextrorphan hematic levels) came to 470 ng/mL. Also, the concentration at 1 h in series [1] (guinea pig, plasma, po, Table 2 (dextrorphan tartrate by order of b16), 60 minutes, read-out: Dextrorphan hematic levels) came to 2500 ng/mL. Further, the concentration at 2 h in series [1] (guinea pig, plasma, po, Table 2 (dextrorphan tartrate by order of b16), 120 minutes, read-out: Dextrorphan hematic levels) was determined as 3800 ng/mL. The concentration at 3 h in series [1] (guinea pig, plasma, po, Table 2 (dextrorphan tartrate by order of b16), 180 minutes, read-out: Dextrorphan hematic levels) came out at 3000 ng/mL. In addition, the concentration at 5 h in series [1] (guinea pig, plasma, po, Table 2 (dextrorphan tartrate by order of b16), 300 minutes, read-out: Dextrorphan hematic levels) stood at 3800 ng/mL.
